Test results taken from patent US20240148728A1, “NOVEL METHOD TO BLOCK IN[…] DEATH AND IL-1BETA SECRETION CAUSED BY […] UV I[…] GENETIC AND CHEMICAL INHIBITORS OF ZAKA AND THE NLRP1 INFLAMMASOME” (priority 2021, published 2024).

Key:
[1] = system: NLRP1-NT; experiment: NLRP1 cleavage / NLRP1-NT level by immunoblot; assay type: cell-based, human
From the text: The following antibodies were used in this study: cleaved PARP1 (Abclonal, #WH162766), Cleaved CASP3 (Abclonal, #WH154646), Full length GSDMD-FL (Abcam, #ab210070), IL1β p17 specific (CST, #83186S), CARD8 (Abcam, CARD8-NT: ab19485, CARD8-CT: ab241186), DPP9 (Abcam, ab226334), c-Myc (Santa Cruz Biotechnology, #sc-40), HA tag (Santa Cruz Biotechnology, #sc-805), GAPDH (Santa Cruz Biotechnology, #sc-47724), ASC (Adipogen, #AL-177), CASP1 (Santa Cruz Biotechnology, #sc-622), 11_1B (R&D systems, #AF-201), FLAG (SigmaAldrich, #F3165), NLRP1 (R&D systems, #AF6788), IL18 (Abcam ab207324), cleaved GSDMD-NT (Asp275) (Cell Signaling Technology, #36425), RPL31 (Abclonal, #WH162766), CASP7 (Abcam, ab255818), CASP8 (Abcam, ab32397), cleaved CASP3 (Cell Signaling Technology, #9664). All horseradish peroxidase (HRP)— conjugated secondary antibodies were purchased from Jackson Immunoresearch (goat anti-mouse IgG: 115-035-166; goat anti-rabbit IgG: 111-035-144; and donkey anti-goat IgG: 705-005-147). Blue-Native PAGE was carried out using the Native-PAGE system (ThermoFisher) with 10-20 μg of total lysate. For SDS-PAGE using whole cell lysates, cells were resuspended in tris-buffered saline 1% NP-40 with protease inhibitors (Thermo Scientific, #78430). Protein concentration was determined using the Bradford assay (Thermo Scientific, #23200) and […] of protein loaded, a part from cleaved GSDMD-NT visualisation where […] of protein was used. All primary antibodies were used at 250 ng/ml. Visualisation of ASC oligomerization was previously described (Robinson et al., 2020). For analysis of IL1β and IL-18 cleavage in the media by immunoblotting, samples were concentrated using filtered centrifugation (Merck, Amicon Ultra, #UFC5003BIK). Protein samples were run using immunoblotting, and then visualized using a ChemiDoc Imaging system (Bio-Rad). PhosTag SDS-PAGE was carried out using homemade 10% SDS-PAGE gel, with addition of Phos-tag Acrylamide (Wako Chemicals, AAL-107) to a final concentration of 30 μM and manganese chloride(II) (Sigma-Aldrich, #63535) to 60 μM.

[2] = system: ASC; experiment: Phosphorylation of inflammasome adaptor ASC; assay type: cell-based, human; conditions: data not shown
[3] = system: 3D human organotypic skin; experiment: 3D organotypic skin histology and cleaved GSDMD-NT immunostaining; assay type: cell-based
Method: Organotypic cultures were generated by adapting a previously described protocol (Arnette et al., 2016). Briefly, 2 ml of collagen I (4 mg/ml; Corning, #354249) mixed with 7.5×10^5 human fibroblasts were allowed to polymerize over 1-m1 acellular collagen I in 6-well culture inserts (Falcon, #353102) placed in 6-well deep well plate (Falcon, #355467). After 24 hours, 1×10^6 primary human keratinocytes were seeded into the inserts and kept submerged in a 3:1 DMEM (Hyclone, #SH30243.01) and F12 (Gibco, #31765035) mixture with 10% FBS (Hyclone, #SV30160.03), 100 U/ml penicillin-streptomycin (Gibco, #15140122), 10 μM Y-27632 (Tocris, #1254), 10 ng/ml EGF (Sigma-Aldrich, #E9644), 1×10^−10 M cholera toxin (Enzo, #BML-G117-001), 0.4 μg/ml hydrocortisone (Sigma-Aldrich, #H0888), 0.0243 mg/ml adenine (Sigma-Aldrich, #A2786), 5 μg/ml insulin (Sigma-Aldrich, #12643), 5 μg/ml transferrin (Sigma-Aldrich, #T2036) and 2×10^−9 M 3,3′,5′-triiodo-L-thyronine (Sigma-Aldrich, #T6397). After another 24 hours, the organotypic cultures were then raised at the air-liquid interface and fed with the submerged media (without Y-27632 and EGF) below the insert to induce epidermal differentiation. The air-lifting medium was replaced every 2 days and treatments began 10-14 days after airlifting. Organotypic cultures were then harvested 24 hours after treatment and formalin fixed for 24 hours. Fixed tissues were then embedded into wax for histological purposes.
For immunohistochemistry staining of cleaved N-terminal GSDMD a previously established protocol with modifications was used [Wang et al., Cell 180:941-955.e20 (2020)]. Briefly, 5 μm formalin fixed and paraffin embedded sections were deparaffinized and rehydrated through a series of alcohol. The sections were then rehydrated in an antigen retrieval buffer (Dako, Tris-EDTA, pH 9). Sections were then blocked in goat serum for 20 mins at RT before primary antibody incubated overnight at 4° C. Immunostaining was visualised using DAB substrate and chromogen detection kit (Dako, #K3468). Sections were then counterstained with Myer's Hematoxylin.

[4] = system: NLRP1; experiment: Ribosome-bound NLRP1, sucrose cushion; assay type: cell-based, human; conditions: N-TERT cell lysates
Method: Crude cellular ribosome fractions were purified by sedimentation through a 30% sucrose cushion or a 10-30% sucrose gradient. Cells were lysed for 20 min in 15 mM Tris, pH 7.5, 0.5% NP-40, 6 mM MgCl2, 300 mM NaCl, with 1× protease inhibitors before centrifugation for 10 min at 12000 g, 4° C. The supernatant was then carefully layered onto a 30% sucrose cushion 30% sucrose in 20 mM Tris, pH 7.5, 2 mM MgCl2, 150 mM KCl and ultra-centrifuged at 34,000 rpm for 24 h using Beckman Coulter Ultracentrifuge, Optima XE. Pellets then washed three times with ice cold PBS and suspended in 100 mM KCl, 5 mM MgCl2, 20 mM HEPES, pH 7.6, 1 mM DTT and 10 mM NH4Cl. Purified ribosome fractions were then analysed by immunoblot.

[5] = system: MV4-11; experiment: GSDMD cleavage in MV4-11 leukemia cell line; assay type: cell-based, human; conditions: CARD8-activating cell line
[6] = system: mouse bone marrow derived macrophages (BMDMs); experiment: ANS-triggered IL1β secretion and cell death in mouse bone marrow derived macrophages; assay type: cell-based
[7] = system: 293T-ASC-GFP-NLRP1; assay type: cell-based, human
[8] = system: aortic endothelial cells (HAECs); experiment: Inflammasome activation and pyroptosis in aortic endothelial cells; assay type: cell-based, human; conditions: ANS 1 μM

## COc1ccc(C[C@H]2NC[C@H](O)[C@H]2OC(C)=O)cc1 [ANS, Anisomycin]
[1]; ANS-treated cells
  specific cleavage of overexpressed NLRP1 (smaller bands): did not observe any smaller bands
[1]; NLRP1 KO keratinocytes rescued with full-length NLRP1
  level of intact NLRP1-NT: caused a significant reduction in the level of intact NLRP1-NT
[2]
  phosphorylation of ASC: not phosphorylated
[3]; H&E, 24 hours after treatment
  epidermal dyskeratosis: caused striking epidermal dyskeratosis
[3]; immunostaining
  cleaved GSDMD N-terminal fragment at the cell membrane: prominently enriched at the cell membrane
[4]
  level of ribosome-bound NLRP1: dramatically increased the level of ribosome-bound NLRP1
[5]
  GSDMD cleavage: did not display detectable GSDMD cleavage
[6]
  IL1β secretion and cell death, wild-type versus Nlrp1a/b KO: did not differ between wild-type and NIrp1a/b KO
[7]; ANS 1 μM, LTM 1 μg/ml, STS 1 μM
  ASC-GFP speck formation, screen of cytotoxic chemicals: identified two hits
[7]; equivalent concentrations
  percentage of cells with ASC-GFP specks compared with VbP: to a greater extent than VbP at equivalent concentrations
[7]; increasing levels of ANS
  dose dependence of percentage of cells with ASC-GFP specks: in a dose-dependent manner (FIG. 2B) up to 20 μM
[8]
  canonical inflammasome activation and pyroptosis: underwent canonical inflammasome activation and pyroptosis
